Experiments:
[1] = tested on: C57BL/6 mice with EAE; experiment: EAE induced with MOG 35-55 peptide; type: in vivo, C57BL/6 female mice
Method: FIG. 2: Sobetirome reduces demyelination in mice with EAE. […] EAE was induced in female mice with MOG 35-55 peptide. On day 17 post immunization, mice were randomized based on their EAE scores and daily i.p. injections of sobetirome (n=8) or vehicle (n=8) were started. Mice were euthanized after 11 days of treatment and spinal cords were prepared for histological evaluation. The mean percentage of ventrolateral demyelination for vehicle treated mice was 17.25 (SD+/−7.09) and 9.11 (SD+/−4.96) for sobetirome (p<0.01).
This study was performed to assess the effects of sobetirome on EAE in C57BL/6 female mice immunized with MOG 35-55 peptide. Seventeen days after immunization, at peak of clinical disease, mice were randomized to receive daily injections of sobetirome (1 mg/kg/day) or vehicle. After 11 days of treatment, mice were euthanized and processed for histologic examination. […] This is because the degree of inflammation within the spinal cords was similar between the two groups (Table 1) and much of the short term paralysis that occurs in EAE is secondary to effects of inflammation on neural function. […] Much of the effect appears related to protection of axons and myelin from damage (FIG. 3). Thus, sobetirome has a neuroprotective effect that decreases axonal damage and demyelination.

[2] = tested on: corpus callosum of mice following injection of lysolecithin; experiment: Lysolecithin toxin model of focal demyelination; type: in vivo, C57BL/6 mice; details: 8 days after lysolecithin injection, daily i.p. from 7 days before to 8 days after, sobetirome 1.0 mg/kg/day, T3 0.4 mg/kg/day
Method: FIG. 1: Sobetirome reduced demyelination in the corpus callosum of mice following injection of lysolecithin. Top, BlackGold® stain is specific for myelin fibers and cresyl violet is used as a counterstain. Mice received stereotactic injections of 2 μL of PBS or 2% lysolecithin in the corpus callosum. A white arrow indicates the path of the injection needle and a black box indicates the lesion site. An enlarged image of the boxed lesion site is shown to the right. Bottom, brain sections of 30 μm were stained with FluoroMyelin™, anti-PDGFR-α and DAPI. Hypothyroidism was induced with drinking water treatment, and both hypothyroid and control mice received vehicle injections. T3 (0.4 mg/kg) and sobetirome (1 mg/kg) were administered by daily i.p. injections starting 7 days before stereotactic injection of lysolecithin. Mice were euthanized 8 days after stereotactic injection of 2% lysolecithin, and brains were harvested and processed for histological analysis.
Lysolecithin was injected into the corpus callosum using stereotactic equipment at the x, y, z coordinates of +1.000, +1.050, and +2.000 mm from the Bregma point using a beveled needle with the bevel facing caudally. To minimize trauma, 2 μL of 2% lysolecithin or 2 μL of PBS was injected over four minutes using a micropump injector and the beveled needle was held in place for five minutes before withdrawal. […]

SMILES | % CD4 Staining (T cell marker) ([1]; immunofluorescent staining of lumbosacral spinal cord sections, vehicle 1.01) | % CD11b Staining (macrophage marker) ([1]; immunofluorescent staining of lumbosacral spinal cord sections, vehicle 3.89) | EAE clinical scores versus vehicle ([1]; sobetirome 1 mg/kg/day, 11 days of treatment from day 17 after immunization) | demyelination in lateral columns of the lumbosacral cord versus vehicle ([1]; sobetirome 1 mg/kg/day, 11 days of treatment, p<0.01) | mean percentage of ventrolateral demyelination (area of damage in ventrolateral white matter) ([1]; spinal cord, after 11 days of daily i.p. treatment started day 17 post immunization, n=8, vehicle 17.25 (SD+/−7.09), p<0.01) | areas of demyelination compared with vehicle [2]
Cc1cc(OCC(=O)O)cc(C)c1Cc1ccc(O)c(C(C)C)c1 [Sobetirome] | 1.24% | 5.76% | did not differ significantly | significantly less demyelination | 9.11 (SD+/−4.96) % | much smaller areas of demyelination
N[C@@H](Cc1cc(I)c(Oc2ccc(O)c(I)c2)c(I)c1)C(=O)O [T3, triiodothyronine] |  |  |  |  |  | much smaller areas of demyelination
